# Experimental data taken from US20050063989A1, “Ion channel hybrid proteins as electrical sensors and use thereof” (COMMISSARIAT A L'ENERGIE ATOMIQUE, priority 2003, published 2005).
# Experiments:
# SUR2A-Kir6.2 channels = target: T1, SUR2A-Kir6.2 channels (Rattus norvegicus, UniProt Q63563); assay: Inside-out patch-clamp of SUR2A-Kir6.2 fusion channels expressed in Xenopus oocytes; type: cell-based, mouse Kir6.2; conditions: for Effect of K-channel opener on SUR2A-Kir6.2 channels: opener 10 μM, in the presence of partially-inhibiting ATP (100 μM), -50 mV
# T1 construct: expressed in transfected cells; host or cells: Xenopus laevis oocytes injected with in vitro transcribed mRNA; excised inside-out patches
# T1 sequence (Q63563 with tags, fused parts or gaps): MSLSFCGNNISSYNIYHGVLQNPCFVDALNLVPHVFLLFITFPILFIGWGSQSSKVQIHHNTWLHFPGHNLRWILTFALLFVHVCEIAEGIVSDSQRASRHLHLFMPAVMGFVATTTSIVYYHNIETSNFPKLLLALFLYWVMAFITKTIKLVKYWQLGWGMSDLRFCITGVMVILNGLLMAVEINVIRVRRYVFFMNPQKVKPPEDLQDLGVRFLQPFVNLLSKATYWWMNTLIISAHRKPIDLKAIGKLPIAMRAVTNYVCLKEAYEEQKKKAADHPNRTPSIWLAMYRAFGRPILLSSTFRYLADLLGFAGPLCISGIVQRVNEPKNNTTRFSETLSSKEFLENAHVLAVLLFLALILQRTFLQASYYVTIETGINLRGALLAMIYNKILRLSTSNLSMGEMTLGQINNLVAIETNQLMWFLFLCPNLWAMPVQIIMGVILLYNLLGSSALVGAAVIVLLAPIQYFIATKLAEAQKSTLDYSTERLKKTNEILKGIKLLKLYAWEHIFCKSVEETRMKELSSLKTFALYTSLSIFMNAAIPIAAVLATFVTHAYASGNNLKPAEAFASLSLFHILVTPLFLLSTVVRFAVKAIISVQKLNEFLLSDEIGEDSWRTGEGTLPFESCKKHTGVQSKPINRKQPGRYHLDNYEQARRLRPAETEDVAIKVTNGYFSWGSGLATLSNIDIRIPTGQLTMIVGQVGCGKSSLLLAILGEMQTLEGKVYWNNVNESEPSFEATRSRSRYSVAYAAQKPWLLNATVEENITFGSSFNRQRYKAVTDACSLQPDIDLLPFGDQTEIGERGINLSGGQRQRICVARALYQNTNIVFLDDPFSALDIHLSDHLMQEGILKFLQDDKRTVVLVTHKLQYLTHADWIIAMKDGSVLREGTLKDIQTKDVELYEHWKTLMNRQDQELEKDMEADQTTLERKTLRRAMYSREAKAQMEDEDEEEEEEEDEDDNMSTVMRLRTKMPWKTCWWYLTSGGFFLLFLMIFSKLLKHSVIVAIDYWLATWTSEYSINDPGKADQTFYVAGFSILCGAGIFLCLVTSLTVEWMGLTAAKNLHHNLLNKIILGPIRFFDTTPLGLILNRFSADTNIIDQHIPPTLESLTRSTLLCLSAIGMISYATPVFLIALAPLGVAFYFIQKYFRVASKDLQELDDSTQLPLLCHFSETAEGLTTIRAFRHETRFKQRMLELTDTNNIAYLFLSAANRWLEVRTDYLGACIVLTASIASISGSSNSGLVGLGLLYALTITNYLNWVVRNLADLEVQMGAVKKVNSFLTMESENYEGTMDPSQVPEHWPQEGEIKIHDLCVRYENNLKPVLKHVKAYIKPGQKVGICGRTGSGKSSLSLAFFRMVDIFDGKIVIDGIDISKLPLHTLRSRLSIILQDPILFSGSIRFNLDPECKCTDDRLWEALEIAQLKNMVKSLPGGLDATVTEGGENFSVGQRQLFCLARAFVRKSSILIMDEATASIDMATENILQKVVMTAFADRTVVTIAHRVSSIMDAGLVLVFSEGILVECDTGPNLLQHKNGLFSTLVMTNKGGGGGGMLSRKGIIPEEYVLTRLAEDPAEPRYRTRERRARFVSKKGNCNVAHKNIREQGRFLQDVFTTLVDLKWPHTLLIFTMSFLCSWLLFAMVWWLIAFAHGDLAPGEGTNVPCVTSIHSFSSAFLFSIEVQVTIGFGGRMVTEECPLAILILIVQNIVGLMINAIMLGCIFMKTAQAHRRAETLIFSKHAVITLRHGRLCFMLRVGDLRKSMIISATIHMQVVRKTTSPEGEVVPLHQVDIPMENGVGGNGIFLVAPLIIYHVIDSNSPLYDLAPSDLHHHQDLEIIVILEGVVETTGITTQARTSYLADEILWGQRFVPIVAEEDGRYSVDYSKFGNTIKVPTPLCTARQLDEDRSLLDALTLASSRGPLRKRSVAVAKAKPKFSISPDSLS
# Method: (§1) mRNAs coding Kir6.2 (˜2 ng) and wild-type SURs (˜6 ng) or mRNAs coding the fusion constructs (˜8 ng) were co-injected into defoliculated Xenopus laevis oocytes. Injected oocytes were stored at 19° C. in Barth's solution (in mM: 1 KCl, 0.82 MgSO4, 88 NaCl, 2.4 NaHCO3, 0.41 CaCl2, 0.3 Ca(NO3)2, 16 HEPES, pH 7.4) with 100 U/ml penicillin, 100 μg/ml streptomycin, and 100 μg/ml gentamycin.
# (§2) Two to 15 days after injection, oocytes were devitellinized and recombinant KATP channels were characterized by the patch-clamp technique in the excised inside-out configuration (Hamill et al., Arch. Eur. J. Physiol., 1981, 391, 85-100). Patch pipettes (2-10 MΩ) contained 154 mM K^+, 146 mM Cl^−, 5 MM Mg^2+, and 10 mM PIPES (pH 7.1). The cytoplasmic face of the patch was bathed in solutions which all contained 174 mM K^+, 40 mM Cl^−, 1 mM EGTA, 1 Mg^2+, 10 mM PIPES (pH 7.1), and methanesulfonate (approximately, 160 mM, depending on the ATP and ADP amounts added—as the remaining anions. ATP and ADP (potassium salt; Sigma), SR47063 (20 mM stock in DMSO; Sanofi Recherche), diazoxide (100 mM stock in DMSO; Sigma) and P1075 (20 mM stock in DMSO; Leo Pharmaceutical Products) were added as specified. The membrane potential was maintained at −50 mV. Experiments were conducted at room temperature (22-24° C.).
# (§3) Applications of the various solutions to the intracellular face of the patch was performed using a RSC-100 rapid-solution-changer (Bio-Logic). Analog signals were filtered at 300 Hz and sampled at 1 kHz. Slow fluctuations of the no-channel-open baseline of the signal were removed by interactive fitting of the baseline with a spline curve and subtraction of this fit from the signal. Acquisition, analysis, and presentation were performed with in-house software.
# SUR1-Kir6.2 channels = target: T2, SUR1-Kir6.2 channels (UniProt Q09427+Q61743); assay: Inside-out patch-clamp of SUR1-Kir6.2 fusion channels expressed in Xenopus oocytes; type: cell-based, hamster SUR1, mouse Kir6.2
# T2 construct: expressed in transfected cells; host or cells: Xenopus laevis oocytes injected with in vitro transcribed mRNA; excised inside-out patches
# T2 sequence (Q09427+Q61743 fused): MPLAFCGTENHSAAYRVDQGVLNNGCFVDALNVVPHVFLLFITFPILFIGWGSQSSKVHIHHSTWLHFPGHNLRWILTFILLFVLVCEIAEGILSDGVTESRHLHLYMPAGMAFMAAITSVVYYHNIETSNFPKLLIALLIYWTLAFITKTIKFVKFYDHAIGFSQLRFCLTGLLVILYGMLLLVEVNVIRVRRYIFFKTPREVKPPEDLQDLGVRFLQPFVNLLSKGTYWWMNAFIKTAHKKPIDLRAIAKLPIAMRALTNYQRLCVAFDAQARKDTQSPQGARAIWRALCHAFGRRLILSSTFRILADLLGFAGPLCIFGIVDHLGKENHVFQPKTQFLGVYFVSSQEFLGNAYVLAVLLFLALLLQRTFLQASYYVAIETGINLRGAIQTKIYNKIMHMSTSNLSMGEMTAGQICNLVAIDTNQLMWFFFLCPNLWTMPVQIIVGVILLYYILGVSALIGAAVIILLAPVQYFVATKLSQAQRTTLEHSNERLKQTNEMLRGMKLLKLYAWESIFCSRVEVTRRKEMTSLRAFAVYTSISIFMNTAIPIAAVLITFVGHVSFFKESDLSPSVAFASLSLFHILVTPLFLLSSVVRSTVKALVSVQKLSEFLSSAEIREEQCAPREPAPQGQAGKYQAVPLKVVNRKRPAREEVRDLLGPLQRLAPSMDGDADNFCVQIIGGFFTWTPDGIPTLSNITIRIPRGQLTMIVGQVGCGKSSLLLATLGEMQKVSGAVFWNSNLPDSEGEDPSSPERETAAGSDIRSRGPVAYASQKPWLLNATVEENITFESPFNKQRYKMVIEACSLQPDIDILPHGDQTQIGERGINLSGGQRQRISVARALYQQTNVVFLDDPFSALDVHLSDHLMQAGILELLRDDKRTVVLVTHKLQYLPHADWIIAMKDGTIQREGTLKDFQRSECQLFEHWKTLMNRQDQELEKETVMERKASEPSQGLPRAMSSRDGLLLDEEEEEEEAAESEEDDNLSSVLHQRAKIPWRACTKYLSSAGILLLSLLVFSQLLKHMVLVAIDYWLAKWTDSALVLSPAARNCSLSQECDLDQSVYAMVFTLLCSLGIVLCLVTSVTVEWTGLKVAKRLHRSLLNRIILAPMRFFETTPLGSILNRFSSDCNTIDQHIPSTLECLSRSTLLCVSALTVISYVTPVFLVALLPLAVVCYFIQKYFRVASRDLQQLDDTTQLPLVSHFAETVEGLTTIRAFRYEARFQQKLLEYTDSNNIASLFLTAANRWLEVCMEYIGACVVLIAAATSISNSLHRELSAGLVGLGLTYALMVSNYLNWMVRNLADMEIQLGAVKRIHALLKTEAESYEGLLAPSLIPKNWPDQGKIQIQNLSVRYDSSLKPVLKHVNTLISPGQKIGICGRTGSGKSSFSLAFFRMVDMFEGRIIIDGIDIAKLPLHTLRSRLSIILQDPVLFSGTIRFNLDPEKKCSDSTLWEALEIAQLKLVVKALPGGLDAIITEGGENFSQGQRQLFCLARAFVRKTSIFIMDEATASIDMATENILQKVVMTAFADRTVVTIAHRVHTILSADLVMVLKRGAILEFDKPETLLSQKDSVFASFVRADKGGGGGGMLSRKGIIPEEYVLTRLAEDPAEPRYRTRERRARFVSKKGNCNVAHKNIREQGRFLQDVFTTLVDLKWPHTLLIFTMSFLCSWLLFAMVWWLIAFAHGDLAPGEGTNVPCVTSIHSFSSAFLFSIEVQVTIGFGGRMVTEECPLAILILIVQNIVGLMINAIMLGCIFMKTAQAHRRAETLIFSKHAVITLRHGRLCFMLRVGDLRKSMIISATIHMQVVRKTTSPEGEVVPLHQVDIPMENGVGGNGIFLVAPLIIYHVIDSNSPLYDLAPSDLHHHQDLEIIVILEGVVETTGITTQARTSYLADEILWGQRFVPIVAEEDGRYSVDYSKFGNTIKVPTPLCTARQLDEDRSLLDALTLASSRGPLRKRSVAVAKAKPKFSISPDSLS
# Method: as §1, §2, §3
# MRP1-Kir6.2 channels = target: T3, MRP1-Kir6.2 channels (Homo sapiens, UniProt P33527, M117T); assay: Inside-out patch-clamp of MRP1-Kir6.2 fusion channels expressed in Xenopus oocytes; type: cell-based, mouse Kir6.2
# T3 construct: expressed in transfected cells; host or cells: Xenopus laevis oocytes injected with in vitro transcribed mRNA; excised inside-out patches
# Method: as §1
# as §2, with “C.). […]” for “C.).”
# Kir6.2ΔC36 channels = target: T4, Kir6.2ΔC36 channels (Mus musculus, UniProt Q61743); assay: Inside-out patch-clamp of Kir6.2ΔC36 channels expressed alone in Xenopus oocytes; type: cell-based
# T4 construct: expressed in transfected cells; host or cells: Xenopus laevis oocytes; excised inside-out patches
# T4 sequence (Q61743 1-354 limits assumed): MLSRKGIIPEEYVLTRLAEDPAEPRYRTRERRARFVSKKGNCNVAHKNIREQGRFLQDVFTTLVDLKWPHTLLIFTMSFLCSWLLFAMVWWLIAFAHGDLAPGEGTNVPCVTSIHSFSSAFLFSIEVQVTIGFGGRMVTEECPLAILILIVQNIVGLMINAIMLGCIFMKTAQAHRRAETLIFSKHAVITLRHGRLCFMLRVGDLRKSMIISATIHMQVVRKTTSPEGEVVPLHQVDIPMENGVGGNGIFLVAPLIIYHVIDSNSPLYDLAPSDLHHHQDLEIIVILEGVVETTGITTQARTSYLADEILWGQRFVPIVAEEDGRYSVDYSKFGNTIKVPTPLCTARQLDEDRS
# From the text: (§4) Removal of the RKR endoplasmic reticulum retention signal of Kir6.2 was accomplished either by deletion of the last 26 or 36 residues of the C-terminal extremity (Tucker et al., Nature, 1997, 387: 179-183) through introduction of a premature stop codon at the correct position, or by site-directed mutagenesis of RKR to RAA (i.e., K370A and R371A). The resulting constructs, named Kir6.2Δ26, Kir6.2ΔC36, and Kir6.2KR370AA, were created by mutagenesis amplification (QuickChange site-directed mutagenesis kit, Stratagene). The sequences corresponding to the different constructs are as presented in Table 1: SUR2A-Kir6.2ΔC36 (SEQ ID NO: 3), MRP1-Kir6.2ΔC36 (SEQ ID NO: 4), YCF1-Kir6.2ΔC36 (SEQ ID NO: 5) and MRP1-Kir6.2[KR370AA] (SEQ ID NO: 6).
# as §1
# (§5) Two to 15 days after injection, oocytes were devitellinized and recombinant KATP channels were characterized by the patch-clamp technique in the excised inside-out configuration (Hamill et al., Arch. Eur. J. Physiol., 1981, 391, 85-100). […]
# MRP1-Kir6.2KR370AA = assay: Inside-out patch-clamp of MRP1-Kir6.2KR370AA channels expressed in Xenopus oocytes; type: cell-based, human MRP1, mouse Kir6.2; conditions: compared with MRP1-Kir6.2
# From the text: as §4, §1, §5
# YCF1-Kir6.2ΔC36 = target: T5, YCF1-Kir6.2ΔC36 (UniProt P39109+Q61743); assay: Inside-out patch-clamp of YCF1-Kir6.2ΔC36 channels expressed in Xenopus oocytes; type: cell-based, yeast YCF1, mouse Kir6.2
# T5 construct: expressed in transfected cells; host or cells: Xenopus laevis oocytes injected with in vitro transcribed mRNA; excised inside-out patches
# From the text: as §4, §1, §5
# Xenopus oocytes = assay: Density of active fusion channels: ATP-inhibitable current after patch excision; type: cell-based, Xenopus laevis
# Method: as §1, §2, §3
# [1] = ADP at submillimolar concentrations
# [2] = total current blocked by 2 mM ATP after patch excision
compound,measurement,setting,value
Nc1ncnc2c1ncn2[C@@H]1O[C@H](COP(=O)(O)OP(=O)(O)O)[C@@H](O)[C@H]1O [ADP],Effect of ADP on SUR2A-Kir6.2 fusion channels,SUR2A-Kir6.2 channels; [1],activation
same,Effect of ADP on SUR1-Kir6.2 fusion channels,SUR1-Kir6.2 channels; [1],activation
same,Effect of ADP on MRP1-Kir6.2 currents,"MRP1-Kir6.2 channels; ADP 100 μM and 300 μM, in the presence of 100 μM ATP",reduced in a dose-dependent manner
same,Effect of ADP on Kir6.2ΔC36 (SUR-less) channels,Kir6.2ΔC36 channels,inhibited
same,Sensitivity of MRP1-Kir6.2KR370AA to ADP,MRP1-Kir6.2KR370AA,could not be distinguished from the non-mutated MRP1-Kir6.2 protein
Nc1ncnc2c1ncn2[C@@H]1O[C@H](COP(=O)(O)OP(=O)(O)OP(=O)(O)O)[C@@H](O)[C@H]1O [ATP],Sensitivity of SUR2A-Kir6.2 channels to ATP,SUR2A-Kir6.2 channels,high sensitivity
same,Sensitivity of SUR1-Kir6.2 channels to ATP,SUR1-Kir6.2 channels,high sensitivity
same,Sensitivity of MRP1-Kir6.2 channels to inhibition by ATP,MRP1-Kir6.2 channels,less sensitive to inhibition by ATP than either SUR-Kir6.2 fusions or wild-type channels
same,Sensitivity of MRP1-Kir6.2KR370AA to ATP,MRP1-Kir6.2KR370AA,could not be distinguished from the non-mutated MRP1-Kir6.2 protein
same,Effect of ATP on YCF1-Kir6.2ΔC36 currents,YCF1-Kir6.2ΔC36,ATP-sensitive currents
CCC(C)(C)N=C(NC#N)Nc1cccnc1 [P1075],Effect of K-channel opener on SUR2A-Kir6.2 channels,SUR2A-Kir6.2 channels,activated
CC1(C)C=C(n2ccccc2=NC#N)c2cc([N+](=O)[O-])ccc2O1 [SR47063],Effect of K-channel opener on SUR2A-Kir6.2 channels,SUR2A-Kir6.2 channels,activated
CC1=NS(=O)(=O)c2cc(Cl)ccc2N1 [diazoxide],Effect of opener on SUR1-Kir6.2 channels,SUR1-Kir6.2 channels; diazoxide 300 μM,activated
MRP1-Kir6.2: fusion of human MRP1 C-terminus to mouse Kir6.2 N-terminus with hexaglycine spacer,"Patch current, fold lower than SUR1-Kir6.2",Xenopus oocytes; [2],7 fold
same,"Patch current, fold lower than SUR2A-Kir6.2",Xenopus oocytes; [2],5 fold
"YCF1-Kir6.2: fusion of yeast YCF1 with mouse Kir6.2, hexaglycine spacer",ATP-inhibitable current of the construct after patch excision,Xenopus oocytes,no detectable exogenous current
YCF1-Kir6.2ΔC36: YCF1-Kir6.2 fusion with last 36 residues truncated to remove the RKR signal,ATP-inhibitable current of the construct after patch excision,Xenopus oocytes,noticeably small compared to the other constructs
